Here are results for 26 molecules from patent US11247965B2 (VenatoRx Pharmaceuticals, Inc., priority 2017, dated 2022).

By EC50 is commonly meant the concentration at which the effect is half-maximal. Usually CC50 stands for the concentration that lowers cell viability or growth by half. Low readings indicate harm at low concentration, high ones better tolerance by the cells.

Data set [1] deals with HBV replication in HepAD38 cells. Description: Anti-HBV activity in HepAD38 cells, extracellular HBV DNA by QPCR. Format: cell-based, HBV (genotype D, serotype ayw). Particulars: Hepatitis B virus, HePAD38, 168 h, read-out: Anti-HBV EC50, HepAD38 cells, extracellular HBV DNA by QPCR, 7 days of incubation. The essentials:
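Seven-day compound exposure (30 μM down to 10 nM, half-log steps) after tetracycline withdrawal induced HBV replication in HepAD38 cells. Extracellular viral DNA measured by QPCR (copies/mL via standard curve), normalised to DMSO wells; EC50 from 4-parameter non-linear regression.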

Data set [2] can be described thus: In vitro cytotoxicity, MTT cell viability assay in HepG2 cells. Particulars: human, Cytotoxicity CC50. Format: cell-based. The essentials:
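Read-out: MTT formazan absorbance at 492 nm, expressed as % of vehicle signal; CC50 by 4-parameter non-linear regression. Parental HepG2, 20,000 cells/well, treated 7 days with compound from 30 μM down to 1.0 nM.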
A general note: Tetrazolium assays rely on reduction of a dye to a coloured formazan, in cell work by metabolically active cells.

Take `O=C(Nc1ccnc(Cl)c1)c1ccc(F)c(C(F)(F)C(=O)N2[C@@H]3CC[C@H]2C[C@H](O)C3)c1` [Example 197, N-(2-chloropyridin-4-yl)-3-(1,1-difluoro-2-((1R,3s,5S)-3-hydroxy-8-azabicyclo[3.2.1]octan-8-yl)-2-oxoethyl)-4-fluorobenzamide]: the EC50 in data set [1] is below 5 µM. The molecule also displayed a CC50 at 7 days in data set [2] below 5 µM.
Consider `Cc1cc(NC(=O)c2cccc(C(F)(F)C(=O)N3CCC(O)CC3)c2Cl)ccc1F` [Example 168, 2-chloro-3-(1,1-difluoro-2-(4-hydroxypiperidin-1-yl)-2-oxoethyl)-N-(4-fluoro-3-methylphenyl)benzamide], for which, in data set [1], the EC50 is below 5 µM. Also, the 50% cytotoxic concentration (CC50) at 7 days in data set [2] was in the range of 5 to 30 µM.
The like results for `Cc1cc(NC(=O)c2ccc(F)c(C(F)(F)C(=O)N[C@@H]3CCOC3=O)c2)ccc1F` [Example 84, (R)-3-(1,1-difluoro-2-oxo-2-((2-oxotetrahydrofuran-3-yl)amino)ethyl)-4-fluoro-N-(4-fluoro-3-methylphenyl)benzamide] were, in that order, above 30 µM and above 30 µM.
The like results for `Cc1cc(NC(=O)c2ccc(F)c(C(F)(F)C(=O)N3CC[C@H](O)C[C@H]3C)c2)ccc1F` [Example 255] were, in that order, below 5 µM and 5 to 30 µM.
With `Cc1cc(NC(=O)c2cc(C(F)(F)C(=O)NC(C)C(F)(F)F)n(C)c2)ccc1F` (stereo not shown) [Example 111, 5-(1,1-difluoro-2-oxo-2-((1,1,1-trifluoropropan-2-yl)amino)ethyl)-N-(4-fluoro-3-methylphenyl)-1-methyl-1H-pyrrole-3-carboxamide], the EC50 in data set [1] is below 5 µM. The same molecule came in with a CC50 at 7 days in data set [2] above 30 µM.
For `Cc1cc(NC(=O)c2cc(F)cc(C(F)(F)C(=O)N3[C@@H]4CC[C@H]3C[C@H](O)C4)c2)ccc1F` [Example 219, 3-(1,1-difluoro-2-((1R,3s,5S)-3-hydroxy-8-azabicyclo[3.2.1]octan-8-yl)-2-oxoethyl)-5-fluoro-N-(4-fluoro-3-methylphenyl)benzamide], the EC50 in data set [1] is 5 to 30 µM. The CC50 at 7 days in data set [2] lay in the range of 5 to 30 µM.
`CC[C@@H](C)NC(=O)C(F)(F)c1cc(C(=O)Nc2ccc(F)c(C)c2)cn1C` [Example 109, (R)-5-(2-(sec-butylamino)-1,1-difluoro-2-oxoethyl)-N-(4-fluoro-3-methylphenyl)-1-methyl-1H-pyrrole-3-carboxamide]: the EC50 in data set [1] is below 5 µM. Also, the CC50 at 7 days in data set [2] is above 30 µM.
In the case of `Cc1cc(NC(=O)c2ccc(F)c(C(F)(F)C(=O)N3CCC(C(N)=O)CC3)c2)ccc1F` [Example 164, 1-(2,2-difluoro-2-(2-fluoro-5-((4-fluoro-3-methylphenyl)carbamoyl)phenyl)acetyl)piperidine-4-carboxamide], the concentration giving a half-maximal response (EC50) in data set [1] is below 5 µM. This molecule returned a CC50 at 7 days in data set [2] above 30 µM.
On to `CC(=O)N[C@H]1CCN(C(=O)C(F)(F)c2cc(C(=O)Nc3ccc(F)c(C)c3)ccc2F)CC1(C)C` [Example 327, (S)-3-(2-(4-acetamido-3,3-dimethylpiperidin-1-yl)-1,1-difluoro-2-oxoethyl)-4-fluoro-N-(4-fluoro-3-methylphenyl)benzamide], for which the EC50 in data set [1] is below 5 µM. In data set [2], this molecule displayed a CC50 at 7 days above 30 µM.
The like results for `Cc1cc(NC(=O)c2ccc(F)c(C(F)(F)C(=O)N3CCN4C(=O)NCC4C3)c2)ccc1F` (stereo not shown) [Example 264, 3-(1,1-difluoro-2-oxo-2-(3-oxohexahydroimidazo[1,5-a]pyrazin-7(1H)-yl)ethyl)-4-fluoro-N-(4-fluoro-3-methylphenyl)benzamide] were, in that order, below 5 µM and above 30 µM.
On to `O=C(Nc1ccc(F)c(Cl)c1)c1ccc(F)c(C(F)(F)C(=O)N2CCC(O)(CO)CC2)c1` [Example 172, N-(3-chloro-4-fluorophenyl)-3-(1,1-difluoro-2-(4-hydroxy-4-(hydroxymethyl)piperidin-1-yl)-2-oxoethyl)-4-fluorobenzamide], for which the half-maximal effective concentration (EC50) in data set [1] is below 5 µM. In data set [2], the CC50 at 7 days is 5 to 30 µM.
The like results for `Cn1cc(NC(=O)c2ccc(F)c(C(F)(F)C(=O)N3[C@@H]4CC[C@H]3C[C@H](O)C4)c2)cn1` [Example 181, 3-(1,1-difluoro-2-((1R,3s,5S)-3-hydroxy-8-azabicyclo[3.2.1]octan-8-yl)-2-oxoethyl)-4-fluoro-N-(1-methyl-1H-pyrazol-4-yl)benzamide] were, in that order, 5 to 30 µM and above 30 µM.
With `Cc1cc(NC(=O)c2ccc(F)c(C(F)(F)C(=O)N3[C@@H]4CNC[C@H]3COC4)c2)ccc1F` [Example 208, 3-(2-((1R,5S)-3-oxa-7,9-diazabicyclo[3.3.1]nonan-9-yl)-1,1-difluoro-2-oxoethyl)-4-fluoro-N-(4-fluoro-3-methylphenyl)benzamide], the EC50 in data set [1] is below 5 µM. The molecule also returned a CC50 at 7 days in data set [2] of 5 to 30 µM.
The like results for `Cc1cc(NC(=O)c2ccc(F)c(C(F)(F)C(=O)N3CCC(O)CC3)c2)cc(F)c1F` [Example 159, 3-(1,1-difluoro-2-(4-hydroxypiperidin-1-yl)-2-oxoethyl)-N-(3,4-difluoro-5-methylphenyl)-4-fluorobenzamide] were, in that order, below 5 µM and 5 to 30 µM.
`Cc1cc(NC(=O)c2cc(C(O)(C(=O)NC(C)(C)C)C(C)C)cn2C)ccc1F` (stereo not shown) [Example 124, 4-(1-(tert-butylamino)-2-hydroxy-3-methyl-1-oxobutan-2-yl)-N-(4-fluoro-3-methylphenyl)-1-methyl-1H-pyrrole-2-carboxamide]: the EC50 in data set [1] lay within 5 to 30 µM. Moreover, the CC50 at 7 days in data set [2] was above 30 µM.
In the case of `Cc1cc(NC(=O)c2cc(Br)c(C(F)(F)C(=O)N3CCC(O)CC3)n2C)ccc1F` [Example 98, 4-bromo-5-(1,1-difluoro-2-(4-hydroxypiperidin-1-yl)-2-oxoethyl)-N-(4-fluoro-3-methylphenyl)-1-methyl-1H-pyrrole-2-carboxamide], the EC50 in data set [1] was above 30 µM. The same molecule yielded a CC50 at 7 days in data set [2] above 30 µM.
As for `O=C(Nc1ccc(F)c(Cl)c1)c1ccc(Cl)c(C(F)(F)C(=O)N2CCC(O)CC2)c1` [Example 35, 4-chloro-N-(3-chloro-4-fluorophenyl)-3-(1,1-difluoro-2-(4-hydroxypiperidin-1-yl)-2-oxoethyl)benzamide], the EC50 in data set [1] was below 5 µM. Moreover, the CC50 at 7 days in data set [2] fell in the range of 5 to 30 µM.
The matching figures for `Cn1cc(NC(=O)c2ccc(F)c(C(F)(F)C(=O)N3[C@@H]4CC[C@H]3C[C@@H](O)C4)c2)cn1` [Example 180, 3-(1,1-difluoro-2-((1R,3r,5S)-3-hydroxy-8-azabicyclo[3.2.1]octan-8-yl)-2-oxoethyl)-4-fluoro-N-(1-methyl-1H-pyrazol-4-yl)benzamide]: 5 to 30 µM and above 30 µM.
In the case of `Cc1cc(NC(=O)c2ccc(F)c(C(F)(F)C(=O)N3CCC(NC(=O)OC(C)(C)C)CC3)c2)ccc1F` [Example 229, tert-butyl (1-(2,2-difluoro-2-(2-fluoro-5-((4-fluoro-3-methylphenyl)carbamoyl)phenyl)acetyl)piperidin-4-yl)carbamate], in data set [1], the EC50 was below 5 µM. This molecule returned a CC50 at 7 days in data set [2] of 5 to 30 µM.
The matching figures for `CCC(C)NC(=O)C(F)(F)c1cc(C(=O)Nc2ccc(F)c(Cl)c2)cn1C` (stereo not shown) [Example 136, 5-(2-(sec-butylamino)-1,1-difluoro-2-oxoethyl)-N-(3-chloro-4-fluorophenyl)-1-methyl-1H-pyrrole-3-carboxamide]: 5 to 30 µM and above 30 µM.
The matching figures for `Cn1cc(C(=O)Nc2ccc(F)c(Cl)c2)cc1C(F)(F)C(=O)NOC(C)(C)C` [Example 144, 5-(2-(tert-butoxyamino)-1,1-difluoro-2-oxoethyl)-N-(3-chloro-4-fluorophenyl)-1-methyl-1H-pyrrole-3-carboxamide]: below 5 µM and above 30 µM.
Consider `O=C(Nc1ccc(F)c(F)c1)c1ccc(F)c(C(F)(F)C(=O)N2[C@@H]3CC[C@H]2C[C@H](O)C3)c1` [Example 199, 3-(1,1-difluoro-2-((1R,3s,5S)-3-hydroxy-8-azabicyclo[3.2.1]octan-8-yl)-2-oxoethyl)-N-(3,4-difluorophenyl)-4-fluorobenzamide], for which the EC50 in data set [1] is below 5 µM. Also, in data set [2], the CC50 at 7 days fell in the range of 5 to 30 µM.
`CC(=O)NC1CCN(C(=O)C(F)(F)c2cc(C(=O)Nc3ccc(F)c(C)c3)ccc2F)CC1(C)C` (stereo not shown) [Example 287, 3-(2-(4-acetamido-3,3-dimethylpiperidin-1-yl)-1,1-difluoro-2-oxoethyl)-4-fluoro-N-(4-fluoro-3-methylphenyl)benzamide]: in data set [1], the EC50 was below 5 µM. The molecule further had a 50% cytotoxic concentration (CC50) at 7 days in data set [2] of 5 to 30 µM.
Take `Cc1cc(NC(=O)c2ccc(F)c(C(F)(F)C(=O)N3[C@@H]4CC[C@H]3CC(O)(CN)C4)c2)ccc1F` (stereo partly drawn) [Example 276, 3-(2-((1R,5S)-3-(aminomethyl)-3-hydroxy-8-azabicyclo[3.2.1]octan-8-yl)-1,1-difluoro-2-oxoethyl)-4-fluoro-N-(4-fluoro-3-methylphenyl)benzamide]: in data set [1], the 50% effective concentration (EC50) was below 5 µM. Also, the CC50 at 7 days in data set [2] lay within 5 to 30 µM.
The matching figures for `O=C(Nc1ccnc(Cl)c1)c1ccc(F)c(C(F)(F)C(=O)N2CCC(O)C(F)(F)C2)c1` (stereo not shown) [Example 195, N-(2-chloropyridin-4-yl)-3-(2-(3,3-difluoro-4-hydroxypiperidin-1-yl)-1,1-difluoro-2-oxoethyl)-4-fluorobenzamide]: below 5 µM and below 5 µM.
The matching figures for `Cc1cc(NC(=O)c2ccc(F)c(C(F)(F)C(=O)N3[C@@H]4CC[C@H]3C[C@@H](NC(=O)OC(C)(C)C)C4)c2)ccc1F` [Example 225, tert-butyl ((1R,3r,5S)-8-(2,2-difluoro-2-(2-fluoro-5-((4-fluoro-3-methylphenyl)carbamoyl)phenyl)acetyl)-8-azabicyclo[3.2.1]octan-3-yl)carbamate]: below 5 µM and 5 to 30 µM.
